Laboratory results published in PubChem BioAssay AID248 (DTP/NCI, 2004).
Values joined by “and” are separate entries in the source; they are usually repeats but may differ in a detail not shown here. Equal entries are not always repeated. Toxic doses and inconclusive results are not listed. Rule as the data show it: active = T/C of 150% or more; inactive = T/C below 125%.

Test system: L1210 leukemia ip in BDF1 mice, survival T/C
Experiment: NCI In Vivo Anticancer Drug Screen. Data for tumor model L1210 Leukemia (intraperitoneal) in B6D2F1 (BDF1) mice
Settings: endpoint: mean survival time, higher = longer survival
Summary of the method: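 Tumor was transplanted into mice, which were then dosed with test compound or vehicle alone. Survival was recorded for each group, and the treated figure was expressed relative to the control figure.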

[1] = dose: 100.0 mg/kg/injection, schedule: Q01DX001 (ip), vehicle: carboxymethylcellulose (CMC)
[2] = dose: 200.0 mg/kg/injection, schedule: Q01DX001 (ip), vehicle: carboxymethylcellulose (CMC)
[3] = dose: 400.0 mg/kg/injection, schedule: Q01DX001 (ip), vehicle: carboxymethylcellulose (CMC)
[4] = dose: 100.0 mg/kg/injection, schedule: Q01DX009 (ip), vehicle: saline with Tween-80
[5] = dose: 200.0 mg/kg/injection, schedule: Q01DX009 (ip), vehicle: saline with Tween-80
[6] = dose: 400.0 mg/kg/injection, schedule: Q01DX009 (ip), vehicle: saline with Tween-80
[7] = dose: 75.0 mg/kg/injection, schedule: Q04DX003 (ip), vehicle: saline
[8] = dose: 150.0 mg/kg/injection, schedule: Q04DX003 (ip), vehicle: saline
[9] = dose: 100.0 mg/kg/injection, schedule: Q04DX003 (ip), vehicle: saline with Tween-80
[10] = dose: 200.0 mg/kg/injection, schedule: Q04DX003 (ip), vehicle: saline with Tween-80
[11] = dose: 400.0 mg/kg/injection, schedule: Q04DX003 (ip), vehicle: saline with Tween-80
[12] = dose: 100.0 mg/kg/injection, schedule: Q01DX009 (ip), vehicle: Klucel (hydroxypropylcellulose) (HPC)
[13] = dose: 200.0 mg/kg/injection, schedule: Q01DX009 (ip), vehicle: Klucel (hydroxypropylcellulose) (HPC)
[14] = dose: 100.0 mg/kg/injection, schedule: Q04DX002 (ip), vehicle: Klucel (hydroxypropylcellulose) (HPC)
[15] = dose: 200.0 mg/kg/injection, schedule: Q04DX002 (ip), vehicle: Klucel (hydroxypropylcellulose) (HPC)
[16] = dose: 400.0 mg/kg/injection, schedule: Q04DX002 (ip), vehicle: Klucel (hydroxypropylcellulose) (HPC)
[17] = dose: 10.0 mg/kg/injection, schedule: Q01DX001 (ip), vehicle: saline
[18] = dose: 20.0 mg/kg/injection, schedule: Q01DX001 (ip), vehicle: saline
[19] = dose: 40.0 mg/kg/injection, schedule: Q01DX001 (ip), vehicle: saline
[20] = dose: 100.0 mg/kg/injection, schedule: Q01DX001 (ip), vehicle: saline
[21] = dose: 400.0 mg/kg/injection, schedule: Q01DX009 (ip), vehicle: Klucel (hydroxypropylcellulose) (HPC)
[22] = dose: 75.0 mg/kg/injection, schedule: Q01DX001 (ip), vehicle: saline
[23] = dose: 100.0 mg/kg/injection, schedule: Q04DX003 (ip), vehicle: Klucel (hydroxypropylcellulose) (HPC)
[24] = dose: 200.0 mg/kg/injection, schedule: Q04DX003 (ip), vehicle: Klucel (hydroxypropylcellulose) (HPC)
[25] = dose: 400.0 mg/kg/injection, schedule: Q04DX003 (ip), vehicle: Klucel (hydroxypropylcellulose) (HPC)

Measured: T/C

Cn1c(=O)c2[nH]cnc2n(C)c1=O
inactive: dose: 18.25 mg/kg/injection, schedule: Q01DX Z (ip), vehicle: carboxymethylcellulose (CMC) 105 % of control | dose: 36.5 mg/kg/injection, schedule: Q01DX Z (ip), vehicle: carboxymethylcellulose (CMC) 107 % of control | dose: 63.0 mg/kg/injection, schedule: Q01DX Z (ip), vehicle: carboxymethylcellulose (CMC) 92 % of control | [1] 98 % of control | dose: 126.0 mg/kg/injection, schedule: Q01DX Z (ip), vehicle: carboxymethylcellulose (CMC) 98 % of control | [2] 98 % of control | [3] 96 % of control

O=C(Nc1ccc(CCO)cc1)Nc1ccccc1C(F)(F)F
inactive: [4] 97 % of control | [5] 90 % of control | [6] 92 % of control

O=[N+]([O-])C=C([SH2+])[SH2+].O=[N+]([O-])C=C([SH2+])[SH2+].[Ni+2].c1ccc(C[P+](c2ccccc2)(c2ccccc2)c2ccccc2)cc1
inactive: [7] 101 % of control | [8] 101 % of control

CCCCOC(=O)c1cocc1C(=O)OCCCC
inactive: [4] 99 % of control | [9] 98 % of control | [5] 92 % of control | [10] 104 % of control | [6] 90 % of control | [11] 93 % of control

Cc1cccc(NC(=O)c2c(Br)c(Br)c(Br)c(Br)c2C(=O)O)c1C
inactive: [12] 100 % of control | [13] 103 % of control

CCOC(=O)C(CN(CC)CC)c1ccccc1 (stereo not given)
inactive: dose: 88.8 mg/kg/injection, schedule: Q01DX001 (ip), vehicle: carboxymethylcellulose (CMC) 97 % of control and 105 % of control | [1] 118 % of control | dose: 133.0 mg/kg/injection, schedule: Q01DX001 (ip), vehicle: carboxymethylcellulose (CMC) 97 % of control and 98 % of control | [2] 105 % of control and 109 % of control | dose: 300.0 mg/kg/injection, schedule: Q01DX001 (ip), vehicle: carboxymethylcellulose (CMC) 98 % of control and 106 % of control | [3] 115 % of control

Cc1ccc(NC(=O)OCCOc2c(C(C)C)cccc2C(C)C)c([N+](=O)[O-])c1
inactive: [14] 94 % of control | [15] 96 % of control | [16] 92 % of control

CC(=O)C12CC3CC1C2C3
inactive: [7] 106 % of control | [8] 102 % of control | dose: 300.0 mg/kg/injection, schedule: Q04DX003 (ip), vehicle: saline 101 % of control

CCCCCCCCCCCCCC(=O)O (tested in a mixture with another compound)
inactive: dose: 5.0 mg/kg/injection, schedule: Q01DX001 (ip), vehicle: saline 101 % of control | [17] 95 % of control | [18] 102 % of control | [19] 102 % of control | dose: 80.0 mg/kg/injection, schedule: Q01DX001 (ip), vehicle: saline 90 % of control | [20] 98 % of control

Cc1c(Cl)ccc2c1S(=O)(=O)c1cccc(Cl)c1-2
inactive: [14] 104 % of control | [15] 96 % of control | [16] 100 % of control

O=C(NN1CCOCC1)c1ccc([N+](=O)[O-])s1
inactive: dose: 50.0 mg/kg/injection, schedule: Q01DX005 (ip), vehicle: saline 98 % of control | dose: 100.0 mg/kg/injection, schedule: Q01DX005 (ip), vehicle: saline 102 % of control | dose: 200.0 mg/kg/injection, schedule: Q01DX005 (ip), vehicle: saline 98 % of control

CN(C)N=Nc1ccc([N+](=O)[O-])cc1C(=O)O
inactive: dose: 25.0 mg/kg/injection, schedule: Q04DX003 (ip), vehicle: other 93 % of control | dose: 50.0 mg/kg/injection, schedule: Q04DX003 (ip), vehicle: other 98 % of control | [12] 100 % of control | dose: 100.0 mg/kg/injection, schedule: Q04DX003 (ip), vehicle: other 98 % of control | [13] 103 % of control | dose: 200.0 mg/kg/injection, schedule: Q04DX003 (ip), vehicle: other 101 % of control | [21] 110 % of control | dose: 400.0 mg/kg/injection, schedule: Q04DX003 (ip), vehicle: other 98 % of control

C=CCNC(=O)Oc1cccc(NC(=O)OCC=C)c1
inactive: [9] 96 % of control | [10] 96 % of control | [11] 102 % of control

C=CCC1(OC(C)=O)CCN(C)CC1
inactive: [22] 113 % of control

c1ccc(N2CCN(c3c4ccccc4nc4ccccc34)CC2)cc1
inactive: dose: 75.0 mg/kg/injection, schedule: Q01DX001 (ip), vehicle: Klucel (hydroxypropylcellulose) (HPC) 105 % of control | dose: 150.0 mg/kg/injection, schedule: Q01DX001 (ip), vehicle: Klucel (hydroxypropylcellulose) (HPC) 105 % of control | dose: 300.0 mg/kg/injection, schedule: Q01DX001 (ip), vehicle: Klucel (hydroxypropylcellulose) (HPC) 96 % of control

CC1=C(Cl)C(=O)C(C)=C(Cl)C1=O
inactive: [17] 90 % of control | [18] 92 % of control | [19] 108 % of control

CC1(C)CC(=O)C=C(N)C1
inactive: [9] 97 % of control | [10] 92 % of control | [11] 95 % of control

Cc1cc(=O)[nH]c(N/N=C/c2c(O)ccc3ccccc23)n1
inactive: [20] 96 % of control | dose: 200.0 mg/kg/injection, schedule: Q01DX001 (ip), vehicle: saline 94 % of control | dose: 400.0 mg/kg/injection, schedule: Q01DX001 (ip), vehicle: saline 89 % of control

O=C(OCC1CCCO1)c1ccccc1O (stereo not given)
inactive: [23] 100 % of control | [24] 100 % of control | [25] 95 % of control

CCCCCCCCC(C)NCCOC(=O)c1ccc([N+](=O)[O-])cc1 (stereo not given)
inactive: dose: 75.0 mg/kg/injection, schedule: Q01DX001 (ip), vehicle: other 89 % of control | dose: 150.0 mg/kg/injection, schedule: Q01DX001 (ip), vehicle: other 89 % of control

C1C2CC3C1C3/C2=N\N=C1/C2CC3C(C2)C13
inactive: [22] 101 % of control | dose: 150.0 mg/kg/injection, schedule: Q01DX001 (ip), vehicle: saline 89 % of control | dose: 300.0 mg/kg/injection, schedule: Q01DX001 (ip), vehicle: saline 98 % of control

CCOC(=O)C1(c2ccccc2)CCN(CC(O)COc2cc(C)ccc2C(C)C)CC1 (stereo not given)
inactive: dose: 25.0 mg/kg/injection, schedule: Q01DX009 (ip), vehicle: Klucel (hydroxypropylcellulose) (HPC) 91 % of control | dose: 50.0 mg/kg/injection, schedule: Q01DX009 (ip), vehicle: Klucel (hydroxypropylcellulose) (HPC) 100 % of control | [12] 93 % of control and 97 % of control

COc1ccc(C(C)=O)cc1N
inactive: [12] 98 % of control | [23] 94 % of control | [13] 104 % of control | [24] 93 % of control | [21] 116 % of control | [25] 94 % of control
